{
  "source": "patent US20050250836A1",
  "about": "“Inhibitors of checkpoint kinases (Wee1 and Chk1)” (Pfizer Inc, priority 2004, published 2005)",
  "data": [
    {"values": [
      {"smiles": "Cl.NCCCn1cc(Br)c2c3c(c(-c4ccccc4Cl)cc21)C(=O)NC3=O", "melting point": "310 to 313 °C"},
      {"smiles": "COc1ccccc1-c1cc2c(ccn2C)c2c1C(=O)NC2=O", "note": "[Example 27, 4-(2-Methoxyphenyl)-6-methyl-6H-2,6-diaza-as-indacene-1,3-dione]", "melting point": "243 to 245 °C"},
      {"smiles": "COc1ccccc1-c1cc2c(c(Br)cn2C)c2c1C(=O)NC2=O", "note": "[Example 28, 8-Bromo-4-(2-methoxyphenyl)-6-methyl-6H-2,6-diaza-as-indacene-1,3-dione]", "melting point": "216 to 220 °C"},
      {"smiles": "COc1ccccc1-c1cc2c(c(Cl)cn2C)c2c1C(=O)NC2=O", "note": "[Example 30, 8-Chloro-4-(2-methoxyphenyl)-6-methyl-6H-2,6-diaza-as-indacene-1,3-dione]", "melting point": "267 to 271 °C"},
      {"smiles": "CSc1ccccc1-c1cc2c(c(Br)cn2C)c2c1C(=O)NC2=O", "note": "[Example 31, 8-Bromo-6-methyl-4-(2-methylsulfanylphenyl)-6H-2,6-diaza-as-indacene-1,3-dione]", "melting point": "240 to 243 °C"},
      {"smiles": "Cn1cc(I)c2c3c(c(-c4ccccc4Cl)cc21)C(=O)NC3=O", "note": "[Example 32, 4-(2-Chlorophenyl)-8-iodo-6-methyl-6H-2,6-diaza-as-indacene-1,3-dione]", "melting point": "150 to 154 °C (dec.)"},
      {"smiles": "COc1cccc(Cl)c1-c1cc2c(ccn2C)c2c1C(=O)NC2=O", "note": "[Example 33, 4-(2-Chloro-6-methoxyphenyl)-6-methyl-6H-2,6-diaza-as-indacene-1,3-dione]", "melting point": "268 to 272 °C"},
      {"smiles": "COc1cccc(Cl)c1-c1cc2c(c(Br)cn2C)c2c1C(=O)NC2=O", "note": "[Example 34, 8-Bromo-4-(2-chloro-6-methoxyphenyl)-6-methyl-6H-2,6-diaza-as-indacene-1,3-dione]", "melting point": "238 to 242 °C"},
      {"smiles": "CCOCCOCCn1ccc2c3c(c(-c4ccccc4Cl)cc21)C(=O)NC3=O", "note": "[Example 35, 4-(2-Chlorophenyl)-6-[2-(2-ethoxyethoxy)ethyl]-6H-2,6-diaza-as-indacene-1,3-dione]", "melting point": "173 °C"},
      {"smiles": "CCOCCOCCn1cc(Br)c2c3c(c(-c4ccccc4Cl)cc21)C(=O)NC3=O", "note": "[Example 36, 8-Bromo-4-(2-chlorophenyl)-6-[2-(2-ethoxyethoxy)ethyl]-6H-2,6-diaza-as-indacene-1,3-dione]", "melting point": "108 to 110 °C"},
      {"smiles": "O=C1NC(=O)c2c1c(-c1ccccc1Cl)cc1c2ccn1CCCO", "note": "[Example 42, 4-(2-Chlorophenyl)-6-(3-hydroxypropyl)-6H-2,6-diaza-as-indacene-1,3-dione]", "melting point": "225 to 227 °C"},
      {"smiles": "COCCCn1ccc2c3c(c(-c4ccccc4Cl)cc21)C(=O)NC3=O", "note": "[Example 43, 4-(2-Chlorophenyl)-6-(3-methoxypropyl)-6H-2,6-diaza-as-indacene-1,3-dione]", "melting point": "171 to 172 °C"},
      {"smiles": "COCCCn1cc(Br)c2c3c(c(-c4ccccc4Cl)cc21)C(=O)NC3=O", "note": "[Example 44, 8-Bromo-4-(2-chlorophenyl)-6-(3-methoxypropyl)-6H-2,6-diaza-as-indacene-1,3-dione]", "melting point": "149 to 151 °C"},
      {"smiles": "CCOC(=O)c1cc2c3c(c(-c4ccccc4Cl)cc2n1CCCOC)C(=O)NC3=O", "note": "[Example 46, 4-(2-Chlorophenyl)-6-(3-methoxypropyl)-1,3-dioxo-1,2,3,6-tetrahydro-2,6-diaza-as-indacene-7-carboxylic acid ethyl ester]", "melting point": "235 to 237 °C"},
      {"smiles": "COCCCn1c(C(=O)O)cc2c3c(c(-c4ccccc4Cl)cc21)C(=O)NC3=O", "note": "[Example 47, 4-(2-Chlorophenyl)-6-(3-methoxypropyl)-1,3-dioxo-1,2,3,6-tetrahydro-2,6-diaza-as-indacene-7-carboxylic acid]", "melting point": "272 to 274 °C"},
      {"smiles": "CCOC(=O)c1cc2c3c(c(-c4ccccc4Cl)cc2n1CCCO)C(=O)NC3=O", "note": "[Example 48 (ii), 4-(2-Chlorophenyl)-6-(3-hydroxypropyl)-1,3-dioxo-1,2,3,6-tetrahydro-2,6-diaza-as-indacene-7-carboxylic acid ethyl ester]", "melting point": "249 to 251 °C"},
      {"smiles": "O=C1NC(=O)c2c1c(-c1ccccc1Cl)cc1c2cc(C(=O)O)n1CCCBr", "note": "[Example 49, 6-(3-Bromopropyl)-4-(2-chlorophenyl)-1,3-dioxo-1,2,3,6-tetrahydro-2,6-diaza-as-indacene-7-carboxylic acid]", "melting point": "294 to 295 °C"},
      {"smiles": "O=C1NC(=O)c2c1c(-c1ccccc1Cl)cc1c2cc(CO)n1CCCBr", "note": "[Example 50, 6-(3-Bromopropyl)-4-(2-chlorophenyl)-7-hydroxymethyl-6H-2,6-diaza-as-indacene-1,3-dione]", "melting point": "218 to 220 °C"},
      {"smiles": "COCCCn1c(C(N)=O)cc2c3c(c(-c4ccccc4Cl)cc21)C(=O)NC3=O", "note": "[Example 51, 4-(2-Chlorophenyl)-6-(3-methoxypropyl)-1,3-dioxo-1,2,3,6-tetrahydro-2,6-diaza-as-indacene-7-carboxylic acid amide]", "melting point": "260 to 261 °C"},
      {"smiles": "CCOCCOCCn1c(C=O)cc2c3c(c(-c4ccccc4Cl)cc21)C(=O)NC3=O", "note": "[Example 55, 4-(2-Chlorophenyl)-6-[2-(2-ethoxyethoxy)ethyl]-1,3-dioxo-1,2,3,6-tetrahydro-2,6-diaza-as-indacene-7-carbaldehyde]", "melting point": "162 to 165 °C"},
      {"smiles": "CCOCCOCCn1c(C=O)c(Br)c2c3c(c(-c4ccccc4Cl)cc21)C(=O)NC3=O", "note": "[Example 56, 8-Bromo-4-(2-chlorophenyl)-6-[2-(2-ethoxyethoxy)ethyl]-1,3-dioxo-1,2,3,6-tetrahydro-2,6-diaza-as-indacene-7-carbaldehyde]", "melting point": "203 to 205 °C"},
      {"smiles": "COCCCn1c(C=O)cc2c3c(c(-c4ccccc4Cl)cc21)C(=O)NC3=O", "note": "[Example 58, 4-(2-Chlorophenyl)-6-(3-methoxypropyl)-1,3-dioxo-1,2,3,6-tetrahydro-2,6-diaza-as-indacene-7-carbaldehyde]", "melting point": "155 to 156 °C"},
      {"smiles": "COCCCn1c(CO)cc2c3c(c(-c4ccccc4Cl)cc21)C(=O)NC3=O", "note": "[Example 59, 4-(2-Chlorophenyl)-7-hydroxymethyl-6-(3-methoxypropyl)-6H-2,6-diaza-as-indacene-1,3-dione]", "melting point": "187 to 189 °C"},
      {"smiles": "COCCCn1c(CO)c(Br)c2c3c(c(-c4ccccc4Cl)cc21)C(=O)NC3=O", "note": "[Example 60, 8-Bromo-4-(2-chlorophenyl)-7-hydroxymethyl-6-(3-methoxypropyl)-6H-2,6-diaza-as-indacene-1,3-dione]", "melting point": "178 to 180 °C"},
      {"smiles": "COCCCn1c(C=O)c(Br)c2c3c(c(-c4ccccc4Cl)cc21)C(=O)NC3=O", "note": "[Example 61, 8-Bromo-4-(2-chlorophenyl)-6-(3-methoxypropyl)-1,3-dioxo-1,2,3,6-tetrahydro-2,6-diaza-as-indacene-7-carbaldehyde]", "melting point": "206 to 207 °C"},
      {"smiles": "O=C1NC(=O)c2c1c(-c1ccccc1Cl)cc1c2c(Br)c(CO)n1CCCO", "note": "[Example 63, 8-Bromo-4-(2-chlorophenyl)-7-hydroxymethyl-6-(3-hydroxypropyl)-6H-2,6-diaza-as-indacene-1,3-dione]", "melting point": "203 to 205 °C"},
      {"smiles": "COCCCn1c(C=O)c(Cl)c2c3c(c(-c4ccccc4Cl)cc21)C(=O)NC3=O", "note": "[Example 64, 8-Chloro-4-(2-chlorophenyl)-6-(3-methoxypropyl)-1,3-dioxo-1,2,3,6-tetrahydro-2;6-diaza-as-indacene-7-carbaldehyde]", "melting point": "198 to 199 °C"},
      {"smiles": "O=C1NC(=O)c2c1c(-c1ccccc1Cl)cc1c2c(Cl)c(CO)n1CCCO", "note": "[Example 66, 8-Chloro-4-(2-chlorophenyl)-7-hydroxymethyl-6-(3-hydroxypropyl)-6H-2,6-diaza-as-indacene-1,3-dione]", "melting point": "218 to 219 °C"},
      {"smiles": "COCCCn1c(CO)c(Cl)c2c3c(c(-c4ccccc4Cl)cc21)C(=O)NC3=O", "note": "[Example 67, 8-Chloro-4-(2-chlorophenyl)-7-hydroxymethyl-6-(3-methoxypropyl)-6H-2,6-diaza-as-indacene-1,3-dione]", "melting point": "214 to 215 °C"},
      {"smiles": "COCCOCCCn1c(C=O)c(Br)c2c3c(c(-c4ccccc4Cl)cc21)C(=O)NC3=O", "note": "[Example 69, 8-Bromo-4-(2-chlorophenyl)-6-[3-(2-methoxyethoxy)propyl]-1,3-dioxo-1,2,3,6-tetrahydro-2,6-diaza-as-indacene-7-carbaldehyde]", "melting point": "168 to 169 °C"},
      {"smiles": "COCCOCCCn1c(CO)c(Br)c2c3c(c(-c4ccccc4Cl)cc21)C(=O)NC3=O", "note": "[Example 70]", "melting point": "149 to 150 °C"},
      {"smiles": "Cn1c(C(=O)O)cc2c3c(c(-c4ccccc4Cl)cc21)C(=O)NC3=O", "note": "[Example 83, 4-(2-Chlorophenyl)-6-methyl-1,3-dioxo-1,2,3,6-tetrahydro-2,6-diaza-as-indacene-7-carboxylic acid]", "melting point": "301 to 302 °C"},
      {"smiles": "Cn1cc(Br)c2c3c(c(I)cc21)C(=O)NC3=O", "note": "[Example 132, 8-Bromo-4-iodo-6-methyl-6H-2,6-diaza-as-indacene-1,3-dione]", "melting point": "242 °C (dec.)"},
      {"smiles": "CSc1ccccc1-c1cc2c(ccn2C)c2c1C(=O)NC2=O", "note": "[Example 134 (sulfide), 6-Methyl-4-(2-methylsulfanylphenyl)-6H-2,6-diaza-as-indacene-1,3-dione]", "melting point": "272 to 274 °C"},
      {"smiles": "Cn1ccc2c3c(c(-c4ccccc4[S+](C)[O-])cc21)C(=O)NC3=O", "note": "(centres unmarked) [Example 134 (sulfoxide), 4-(2-Methanesulfinylphenyl)-6-methyl-6H-2,6-diaza-as-indacene-1,3-dione]", "melting point": "311 to 315 °C"},
      {"smiles": "C[C@@H]1CN(CCCn2cc(Br)c3c4c(c(-c5ccccc5Cl)cc32)C(=O)NC4=O)C[C@H](C)N1", "note": "[Example 135, 8-Bromo-4-(2-chlorophenyl)-6-[3-(cis-3,5-dimethylpiperazin-1-yl)propyl]-6H-2,6-diaza-as-indacene-1,3-dione]", "melting point": "236 to 239 °C"},
      {"smiles": "O=C1NC(=O)c2c1c(-c1ccccc1Cl)cc1c2c(Br)cn1CCCN1CCCC1", "note": "[Example 137, 8-Bromo-4-(2-chlorophenyl)-6-(3-pyrrolidin-1-ylpropyl)-6H-2,6-diaza-as-indacene-1,3-dione]", "melting point": "158 to 161 °C"},
      {"smiles": "CN1CCN(CCCn2cc(Br)c3c4c(c(-c5ccccc5Cl)cc32)C(=O)NC4=O)CC1", "note": "[Example 138, 8-Bromo-4-(2-chlorophenyl)-6-[3-(4-methylpiperazin-1-yl)-propyl]-6H-2,6-diaza-as-indacene-1,3-dione]", "melting point": "150 to 152 °C"}
    ]}
  ]
}
